According to ChEMBL document CHEMBL1201862, “PubChem BioAssay data set” (2004):
The source made the active and inactive calls.

Columns and labels:
[1] = target: Photoreceptor-specific nuclear receptor (Homo sapiens, UniProt Q9Y5X4); assay: NR2E3 inverse agonists, dose response, biochemical, TR-FRET (AID 463256); type: functional
Beta-galactosidase = Beta-galactosidase (Escherichia coli, UniProt Q8VNN2); assay: Dose response counterscreen for EBI2 assay utilizing the enzyme, b-galactosidase.; type: functional
[2] = target: Peroxisome proliferator-activated receptor gamma/Nuclear receptor corepressor 2 (Homo sapiens, UniProt P37231+Q9Y618); assay: Counterscreen for NR2E3 inverse agonists: TR-FRET-based biochemical high throughput dose response assay to identify inverse agonists of the interaction between peroxisome proliferator-activated receptor gamma (PPARg) and nuclear receptor co-repressor 2 (NCOR2).; type: functional
Prothrombin = Prothrombin (Homo sapiens, UniProt P00734); assay: Thrombin 1536 HTS Dose Response Confirmation. [Related pubchem assays: 1046 (Thrombin 1536 HTS; hits were confirmed in this assay)]; type: functional
Vero = Vero cell cytotoxicity, cytotoxicity control for flavivirus capping enzyme inhibitors (AID 588742); type: functional; conditions: Chlorocebus sabaeus
INS1 = assay: beta cell apoptosis inhibitors, cytokine rescue, dose response, luminescence, retest (AID 449756); type: functional, cell-based; conditions: Rattus norvegicus;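 further: cell death triggered by IL-1 beta plus TNF-alpha plus IFN-gamma mixture; protective hits raise ATP signal compared with cytokine alone wells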
Albumin = Albumin (Bos taurus, UniProt P02769); assay: Counterscreen for inhibitors of T-cell receptor (TCR)-CD3 interaction: Fluorescence-based biochemical high throughput dose response assay to identify inhibitors of T-cell receptor (TCR)-CD3 interaction using a TAMRA-labeled BSA probe.; type: functional
Large T antigen = Large T antigen (Simian virus 40, UniProt P03070); type: functional, Betapolyomavirus macacae;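 further: Confirmatory-stage PubChem screen for compounds that inhibit SV40 T antigen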
[3] = target: T1, Voltage-gated N-type calcium channel alpha-1B subunit/Amyloid beta A4 precursor protein-binding family A member 1 (Homo sapiens, UniProt Q00975+Q02410); type: protein assay
[4] = target: T1, Voltage-gated N-type calcium channel alpha-1B subunit/Amyloid beta A4 precursor protein-binding family A member 1; type: protein assay; remark: listed apart in the source
Nonstructural protein 1 = Nonstructural protein 1 (Influenza A virus, UniProt Q194T2); type: functional, Influenza A virus (A/California/07/2009(H1N1))
[5] = target: T2, Polyadenylate-binding protein 1 (Homo sapiens, UniProt P11940); assay: PABP1 MLLE–PAM2 binding inhibitor potency, dose response, biochemical, fluorescence polarization, FITC-PAM2 peptide (AID 602259); type: functional; conditions: read-out: IC50_Mean
[6] = target: T3, Calpain-2 catalytic subunit (Sus scrofa, UniProt P43367); assay: pig calpain II inhibitor potency, dose response, biochemical, fluorogenic peptide substrate (AID 1420); type: functional
T3 sequence (P43367 whole entry): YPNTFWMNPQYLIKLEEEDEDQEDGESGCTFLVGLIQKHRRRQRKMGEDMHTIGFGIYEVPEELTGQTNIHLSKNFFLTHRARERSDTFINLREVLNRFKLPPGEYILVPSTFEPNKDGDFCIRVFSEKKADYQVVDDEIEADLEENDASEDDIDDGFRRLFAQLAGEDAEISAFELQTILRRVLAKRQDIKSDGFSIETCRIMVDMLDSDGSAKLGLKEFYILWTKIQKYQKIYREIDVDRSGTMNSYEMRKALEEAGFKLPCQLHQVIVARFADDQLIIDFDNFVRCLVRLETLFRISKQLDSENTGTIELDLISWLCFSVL

[7] = target: T2, Polyadenylate-binding protein 1; assay: PABP1 MLLE–PAM2 interaction inhibitors, dose response, miRNA deadenylation inhibitor project, biochemical, fluorescence polarization, Cy5-PAM2 peptide, secondary (AID 602260); type: functional; conditions: read-out: IC50_Mean
[8] = target: T4, Zinc finger protein mex-5 (Caenorhabditis elegans, UniProt Q9XUB2); assay: MEX-5/TCR-2 RNA interaction inhibitors, dose response, biochemical, C. elegans, fluorescence polarization (AID 1960)
T4 sequence (Q9XUB2 whole entry): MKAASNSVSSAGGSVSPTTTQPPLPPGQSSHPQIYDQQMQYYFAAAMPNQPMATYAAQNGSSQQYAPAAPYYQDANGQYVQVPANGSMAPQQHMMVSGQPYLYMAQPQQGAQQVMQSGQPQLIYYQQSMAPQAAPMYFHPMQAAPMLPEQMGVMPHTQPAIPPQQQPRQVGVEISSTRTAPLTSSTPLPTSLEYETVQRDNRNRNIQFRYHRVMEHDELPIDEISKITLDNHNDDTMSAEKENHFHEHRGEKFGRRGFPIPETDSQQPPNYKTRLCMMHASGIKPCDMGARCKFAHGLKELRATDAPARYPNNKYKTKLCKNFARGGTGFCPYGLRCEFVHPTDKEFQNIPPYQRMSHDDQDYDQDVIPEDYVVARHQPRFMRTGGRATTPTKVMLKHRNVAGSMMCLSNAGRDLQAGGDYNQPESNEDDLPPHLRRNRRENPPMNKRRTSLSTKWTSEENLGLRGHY

[9] = target: T5, RNA-binding protein pos-1 (Caenorhabditis elegans, UniProt G5EF15); assay: inhibitors of POS-1/mex-3 RNA binding, dose response, biochemical, fluorescence polarization (AID 1964);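 further: purified POS-1 fused to maltose binding protein made in E. coli; potency of compounds blocking POS-1 binding to fluorescent RNA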
T5 sequence (G5EF15 whole entry): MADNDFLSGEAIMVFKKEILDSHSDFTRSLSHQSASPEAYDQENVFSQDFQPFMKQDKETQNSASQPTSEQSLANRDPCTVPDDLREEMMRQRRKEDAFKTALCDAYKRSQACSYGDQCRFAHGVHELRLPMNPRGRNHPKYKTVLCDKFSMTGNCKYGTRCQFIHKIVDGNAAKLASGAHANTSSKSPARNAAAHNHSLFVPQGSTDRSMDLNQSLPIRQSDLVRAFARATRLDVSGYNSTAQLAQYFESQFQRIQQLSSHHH

Major prion protein = Major prion protein (Homo sapiens, UniProt P04156); type: functional, cell-based
SUMO-activating enzyme [10] = target: T6, SUMO-activating enzyme (Homo sapiens, UniProt Q9UBT2); assay: inhibitors of in vitro SUMOylation cascade, primary screen, biochemical, HTRF, uHTS (AID 2006); type: protein-complex assay
SUMO-activating enzyme [11] = target: T6, SUMO-activating enzyme; assay: SUMOylation inhibitor hit validation, confirmation, SUMOylation inhibitor project, biochemical, AlphaScreen (AID 2018); type: functional
[12] = target: DNA dC->dU-editing enzyme APOBEC-3G (Homo sapiens, UniProt Q9HC16); assay: Dose Response confirmation of small molecule APOBEC3G DNA Deaminase Inhibitors via a fluorescence-based single-stranded DNA deaminase assay. [Related pubchem assays (depositor defined):AID493012, AID493028]; type: functional
HEK293 = assay: inhibitors of LMP1-driven NF-kB reporter, dose response, cell-based, HEK293, luciferase, cherry-pick (AID 588343); type: functional; conditions: Homo sapiens
[13] = P. falciparum ATP4 D1247Y mutant growth inhibitors, dose response, NITD609-resistant line, SYBR Green, dry powder (AID 1159571); type: functional, cell-based;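 further: parasites synchronized at ring stage by sorbitol before testing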
[14] = P. falciparum 3D7-ScDHODH growth inhibitors, dose response, SYBR Green, dry powder samples (AID 1159570); type: functional, cell-based;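 further: parasite growth measured after 72 hours of compound exposure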
[15] = P. falciparum Dd2 growth inhibitors, dose response, SYBR Green, dry powder samples (AID 1159566); type: functional, cell-based;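 further: potency for growth inhibition with lower SYBR green DNA signal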
[16] = P. falciparum Dd2 growth inhibitors, dose response, SYBR Green, cherry-picked samples (AID 1159567); type: functional, cell-based
[17] = CEM21 lymphoblast cell cytotoxicity, dose response, cytotoxicity control for viral fusion inhibitor project, CellTiter-Glo luminescence, cherry-picked (AID 652042); type: functional, cell-based;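 further: potency for signal decrease meaning cytotoxicity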
[18] = inhibitors of HIV Env-driven cell fusion, dose response, cherry-pick (AID 652057); type: functional, cell-based
[19] = inhibitors of clade B AD8 Env fusion, dose response, cell-based, cherry-pick (AID 652062); type: functional;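 further: luciferase signal from cell-cell fusion driven by HIV-1 clade B AD8 Env; potency is for inhibitors of fusion seen as a drop in luminescence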
[20] = inhibitors of SNCA 5'UTR-driven reporter translation, confirmation, H4 neuroglioma cells, luminescence (AID 1988); type: functional, cell-based
[21] = inhibitors of firefly luciferase expression or activity, dose response, H4 neuroglioma cells, luminescence (AID 1990); type: functional, cell-based
Streptococcus = assay: Group A Streptococcus viability loss, dose response, counter-screen for streptokinase expression inhibitor project, luminescence, BacTiterGlo (AID 1915); type: functional, organism-based;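 further: potency for reduction of bacterial viability or growth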
[22] = Luminescence Cell-Based Dose Response HTS to Identify Inhibitors of 5'UTR Stem-Loop Driven Prion Protein mRNA Translation in H4 Neuroglioblastoma Cells. [Related pubchem assays: 1827 (Project Summary), 1813 (Primary HTS)]; type: functional
[23] = test system: Streptococcus sp. 'group A'; assay: growth inhibition of control SK(-) GAS strain, dose response, counter-screen for streptokinase expression inhibitor project, luminescence, kanamycin, BacTiterGlo, confirmation (AID 1900); type: functional, organism-based
[24] = ZM109 Env clade C HIV-1 fusion inhibitors, dose response, HeLa effector, CEM target cells, luciferase, cherry-pick (AID 652058); type: functional, cell-based

## O=C(COc1ccc(Br)cc1)N1CCN(c2ncccn2)CC1
[1]
  IC50: 10.1 µM (not active)
Beta-galactosidase
  IC50: > 80 µM (inactive)
[2]
  IC50: 8.99 µM (active)

## Cc1c(Br)ccc(NC(=O)Cn2nc(-c3cccs3)ccc2=O)c1C
[1]
  IC50: 7.42 µM (active)
[2]
  IC50: 7.73 µM (active)

## O=C(COC(=O)Cn1cnc2ccccc2c1=O)Nc1cc(Cl)ccc1[N+](=O)[O-]
Prothrombin
  IC50: 3.35 µM (active)

## COc1ccc(S(=O)(=O)N(C(=O)c2ccco2)c2cc3sc(=O)oc3c3ccccc23)cc1
Vero
  CC50: 27.7 µM (active)
INS1
  AC50: 4.56 µM (active)

## CC(=O)c1ccc(NC(=O)CN2C(=O)/C(=C/C(C)=C/c3ccccc3)SC2=S)cc1
Albumin
  IC50: > 94.1 µM (inactive)

## COc1ccc(-n2nc3c(N4CCC(C(=O)NCc5ccccc5C)CC4)nnc(C)c3c2C)cc1
[1]
  IC50: 2.01 µM (active)
[2]
  IC50: 1.44 µM (active)

## CC(=O)N(c1ccc2oc(=O)sc2c1)S(=O)(=O)c1cccs1
Large T antigen
  IC50: 40.1 µM (active)

## COCCn1c(SCC(=O)Nc2ccc(C(N)=O)cc2)nc2c3ccccc3nc-2c1O
[3]
  IC50: 6.77 µM (active)
[4]
  IC50: > 50 µM (inactive)

## Cc1ccc(Nc2c([N+](=O)[O-])ccc3c2=NC2(CCCCC2)N=3)cc1
Nonstructural protein 1
  IC50: 17.4 µM (active)
[5]
  IC50: > 66 µM (inactive)
[6]
  IC50: 1.58 µM (not active)
[7]
  IC50: > 66 µM (inactive)

## COc1cc(NC(=O)CSc2nc(C3CC3)nc3ccccc23)cc(OC)c1
[1]
  IC50: 5.35 µM (active)
[2]
  IC50: 5.56 µM (active)

## O=C1C([N+](=O)[O-])=C(O)c2cccc3cccc1c23
[3]
  IC50: > 56.8 µM (not active)
[8]
  EC50: 9.23 µM (active)
[4]
  IC50: 31.2 µM (active)
[9]
  EC50: 12.6 µM (active)

## CCc1nc(SCC(=O)NNC(=O)c2ccc(OC)cc2)c2ccccc2n1
cells
  IC50: > 138 µM (inactive)
Major prion protein
  IC50: 1.72 µM (active)

## C=CCNC(=O)/C(C#N)=C\c1cc(Cl)c(O)c(OCC)c1
Prothrombin
  IC50: > 50 µM (not active)

## c1ccc(-c2csc(NNC3=NCCCCC3)n2)cc1
Large T antigen
  IC50: 61.1 µM (active)

## COc1ccc(NC2CCCN(C(=O)c3ccc(OC)cc3OC)C2)cc1 (configuration not stated)
Large T antigen
  IC50: 82.4 µM (active)

## O=C(c1ccco1)n1nc(-c2cccnc2)nc1NCc1ccco1
Prothrombin
  IC50: 0.134 µM (active)

## O=C(Nc1ccc2oc(-c3cccc4ccccc34)nc2c1)c1nnc[nH]1
SUMO-activating enzyme [10]
  IC50: 11.8 µM (active)
[3]
  IC50: 2.92 µM (active)
[4]
  IC50: > 50 µM (inactive)
SUMO-activating enzyme [11]
  IC50: 3.45 µM (active)

## Cc1ccc(C)c(SCC(=O)OCC(=O)Nc2ccc(S(=O)(=O)N3CCOCC3)cc2)c1
Prothrombin
  IC50: 5.72 µM (active)

## O=C1C(NS(=O)(=O)c2ccccc2)=C(N2CCN(c3ccc(F)cc3)CC2)C(=O)c2ccccc21
Nonstructural protein 1
  IC50: 18.1 µM (active)

## CC(=O)N1CCN(c2ccc(NCc3ccc(-c4ccc(Br)cc4)o3)cc2)CC1
Nonstructural protein 1
  IC50: 41.1 µM (active)

## CN1C(=O)C(C)(C)c2cc(S(=O)(=O)N3CCCC(C(=O)Nc4ccc(Cl)cc4)C3)ccc21 (configuration not stated)
cells
  IC50: > 138 µM (inactive)
Major prion protein
  IC50: 5.86 µM (active)

## COc1ccccc1C(=O)NNC(=O)c1ccc2ccccc2c1O
Albumin
  IC50: > 94.2 µM (inactive)

## CCOC(=O)c1sc(N/N=C/c2ccccc2)nc1C
[12]
  IC50: 40.4 µM (active)

## Brc1ccc2nc(-c3ccc(CN4CCC5(CC4)CNc4ccccc45)cc3)c(-c3ccccc3)nc2c1
cells
  IC50: > 138 µM (inactive)
Major prion protein
  IC50: 7.84 µM (active)

## COc1ccc(Cc2nnc(N/N=C/c3ccc(O)cc3)nc2O)cc1OC
HEK293
  AC50: 4.42 µM (active)
Nonstructural protein 1
  IC50: 1.19 µM (active)
INS1
  AC50: 0.946 µM (active)

## COc1cc(/C=N/NC(=O)c2ccc3c(c2)OCCO3)cc(Cl)c1O
Large T antigen
  IC50: 22.7 µM (active)

## COc1ccc2c3c(n(C)c2c1)[C@@H](CO)N(C(=O)c1ccccc1)CC31CCN(C(=O)c2ccccc2)CC1
[13]
  AC50: 1.55 µM (active)
[14]
  AC50: 2.28 µM (active)
[15]
  AC50: 1.04 µM (active)
[16]
  AC50: 2.56 µM (active)

## CCCc1cc(=O)n2ncc(-c3ccc(Cl)cc3)c2[nH]1
[17]
  AC50: 4.59 µM (active)
[18]
  AC50: 2.65 µM (active)
HEK293
  AC50: 4.07 µM (active)
[19]
  AC50: 11.2 µM (active)
[20]
  EC50: 10.9 µM (active)
[21]
  EC50: 11.6 µM (active)
Streptococcus
  EC50: 5.62 µM (active)
[22]
  EC50: 12.3 µM (active)
INS1
  AC50: 5.79 µM (active)
[23]
  EC50: 1.71 µM (active)
[24]
  AC50: 7.51 µM (active)
